Entries after “also recorded” stand apart in the source; their conditions may differ.
Columns and labels:
[1] = test system: anti-Strep A polyclonal antibodies; assay: Strep A lateral flow immunoassay (Veritor Strep A), false positive signal from porcine mucin samples; type: binding; conditions: for false positive signals from porcine mucin samples: agent added directly to the sample, 4x mucin standard (~2.5 mg/mL), FIGS. 5-6
Procedure: 2-N-butanoyl-D-glucosamide, or Bis-(2-(D-2-deoxy-glucosaminyl))-PEG3-amide were tested for their ability to inhibit or block the binding of the anti-Strep A polyclonal antibodies in the Strep A immunoassay (Veritor™ Strep A assay). Porcine mucin samples were used as a surrogate of human saliva sample, and were tested with an immunoassay test strip for specificity. Using an immunoassay device for detection of Strep A, the effect of 2-N-butanoyl-D-glucosamide, or Bis-(2-(D-2-deoxy-glucosaminyl))-PEG3-amide on the performance of Strep A assay was evaluated using 4× concentration of mucin standard (˜2.5 mg/mL) and Test Standard 1. […] Different concentrations of 2-N-butanoyl-D-glucosamide, or Bis-(2-(D-2-deoxy-glucosaminyl))-PEG3-amide in an immunoassay were evaluated for inhibition of Strep A false positive signals.
m-PEG4-glucosamine, m-PEG6-glucosamine, m-PEG10-glucosamine and m-PEG5000-glucosamine were tested for their ability to inhibit or block the binding of the anti-Strep A polyclonal antibodies in the Strep A immunoassay. […] Different concentrations of m-PEG4-glucosamine, m-PEG6-glucosamine, m-PEG10-glucosamine and m-PEG5000-glucosamine in an immunoassay were evaluated for inhibition of Strep A false positive signals.

[2] = test system: anti-Strep A polyclonal antibodies; assay: Strep A lateral flow immunoassay (Veritor Strep A), sensitivity with sample containing Strep A antigen; type: binding; conditions: for sensitivity of the Strep A assay: agent mixed with sample containing Strep A antigen, FIG. 10
Procedure: FIGS. 1A-1C show the effect of N-propionyl-D-glucosamine on the sensitivity and false positivity of the Veritor™ Strep A assay when analyzing a test sample. The N-propionyl-D-glucosamine was added to the extraction reagent and mixed with porcine mucin, a surrogate of human mucin from saliva for specificity, or with Strep A extract for sensitivity.
2-N-butanoyl-D-glucosamide, or Bis-(2-(D-2-deoxy-glucosaminyl))-PEG3-amide were tested for their ability to inhibit or block the binding of the anti-Strep A polyclonal antibodies in the Strep A immunoassay (Veritor™ Strep A assay). Porcine mucin samples were used as a surrogate of human saliva sample, and were tested with an immunoassay test strip for specificity. Using an immunoassay device for detection of Strep A, the effect of 2-N-butanoyl-D-glucosamide, or Bis-(2-(D-2-deoxy-glucosaminyl))-PEG3-amide on the performance of Strep A assay was evaluated using 4× concentration of mucin standard (˜2.5 mg/mL) and Test Standard 1. Either 2-N-butanoyl-D-glucosamide, or Bis-(2-(D-2-deoxy-glucosaminyl))-PEG3-amide was added directly to the sample. Different concentrations of 2-N-butanoyl-D-glucosamide, or Bis-(2-(D-2-deoxy-glucosaminyl))-PEG3-amide in an immunoassay were evaluated for inhibition of Strep A false positive signals.

[3] = test system: anti-Strep A polyclonal antibodies; assay: Strep A lateral flow immunoassay (Veritor Strep A), false positive signal from saliva samples; type: binding; conditions: saliva from asymptomatic patients; FIGS. 1-4
Procedure: Saliva samples were collected from four asymptomatic patients and tested with an immunoassay test strip for specificity. Previous studies have reported that samples obtained from the mouth tissues, saliva, cheek and tongue of healthy control patients show high false positive rates for Strep A when assayed via a lateral flow immunoassay. See US20130196337A1.
N-propionyl-D-glucosamine was tested for its ability to inhibit or block the binding of the anti-Strep A polyclonal antibodies in the Strep A immunoassay. Saliva samples from four asymptomatic patients were obtained for testing. Using an immunoassay device for detection of Strep A, the four saliva samples were each treated with the extraction reagents (such as the extraction reagents in a commercially available BD Veritor™ Strep A kit) in the presence of N-propionyl-D-glucosamine, which was dried on the conjugate pad during the spraying of liquid conjugate on the conjugate pad (labeling zone). Different concentrations of N-propionyl-D-glucosamine in an immunoassay were evaluated for inhibition of Strep A false positive signals.

[4] = test system: Rabbit polyclonal antibodies for Group A Strep; conditions: previous studies, US 2013/0196337; cited from earlier work
[5] = test system: anti-Strep A polyclonal antibodies; assay: Strep A detection assay, agent added to extraction solution (GAS 1+2) without mucin; type: binding; conditions: no mucin, FIG. 11
[6] = agent mixed with porcine mucin sample, FIG. 10
[7] = high concentration in sample pad or conjugate pad dipping solution, FIG. 8
[8] = lower concentrations (zero to 12.5 mM tested) in conjugate pad dipping solution, FIG. 9
[9] = agent added directly to the sample, Test Standard 1, FIGS. 5-6

m-PEG6-glucosamine
mucin cross-reaction [1, 6]: effective in eliminating | sensitivity of the Strep A assay [2]: without significant impact

m-PEG10-glucosamine
mucin cross-reaction [1, 6]: effective in eliminating | sensitivity of the Strep A assay [2]: without significant impact

CCC(=O)N[C@H]1C(O)O[C@H](CO)[C@@H](O)[C@@H]1O (stereo partly drawn) [N-propionyl-D-glucosamine]
false positive signals from saliva specimens [3]: efficiently suppressed | overall sensitivity of the Veritor Strep A assay ([2]; FIG. 1 and FIG. 3): did not reduce

CC(=O)N[C@H]1C(O)O[C@H](CO)[C@@H](O)[C@@H]1O (stereo partly drawn) [N-acetyl-D-glucosamine]
assay sensitivity [4]: significant reduction | assay specificity (interference by salivary proteins) [4]: can improve assay specificity

m-PEG4-glucosamine
mucin cross-reaction [1, 6]: effective in eliminating | sensitivity of the Strep A assay [2]: without significant impact

Bis-(2-(D-2-deoxy-glucosaminyl))-PEG3-amide
mucin induced false positive signal ([1]; added in sample, two lots of Strep A devices that previously showed mucin cross-reaction, FIG. 7): significantly reducing | false positive signal ([1]; added to conjugate pad dipping solution and/or sample pad dipping solution, FIG. 8): significantly reduced | false positive signals from porcine mucin samples [1]: efficiently suppressed | false positive signal caused by mucin [1, 7]: effectively eliminate | mucin cross-reaction [1, 8]: effectively eliminate | true sensitivity ([2]; added in sample, two lots of Strep A devices, FIG. 7): slightly inhibited | overall sensitivity of the Veritor Strep A assay [2, 9]: did not significantly reduce | true signal [2, 7]: inhibit | true sensitivity [2, 8]: without much impact

m-PEG5000-glucosamine
false positive signal caused by mucin ([1]; agent added to sample, mucin present, FIG. 11): did not reduce the false positive signal caused by mucin, but instead increases the false positive signal; also recorded: does not reduce the false positive signal caused by mucin, but instead increases the false positive signal | false positive signal when mucin is not present [5]: no any false positive signal was observed

CCCC(=O)N[C@H]1C(O)O[C@H](CO)[C@@H](O)[C@@H]1O (stereo partly drawn) [2-N-butanoyl-D-glucosamide]
false positive signals from porcine mucin samples [1]: efficiently suppressed | overall sensitivity of the Veritor Strep A assay [2, 9]: did not significantly reduce

Source: patent US12066439B2, “Methods for enhancing specificity and sensitivity of group a Streptococcus immunoassay” (Becton, Dickinson and Company, priority 2021, dated 2024)
